Measurements: US20180110777A1, “METHOD FOR REGULATION OF TELOMERE LENGTH” (The Johns Hopkins University, priority 2015, published 2018)

Key:
SL13 cells [1] = assay: ADDIT assay (addition of de novo initiated telomeres; modified STELA with PacBio sequencing or Southern blot); assay type: cell-based, mouse
Text: To critically access the role of ATM, as well as other potential telomere length regulators, an assay was developed that measures telomere repeat addition in cells over 48 hr. CAST/EiJ mouse fibroblast cell line was engineered to (SL13) contain a conditional mTR allele and a modified chromosome 4 (chr4) with an internal 480 bp telomere ‘seed’ sequence followed by a unique I-Sce1 endonuclease cut site (FIG. 5 and see Experimental Procedures). The internal telomere ‘seed’ sequence can be conditionally exposed by I-Sce1 endonuclease cleavage (FIG. 1A) and then be elongated by telomerase in a manner similar to de novo telomere addition shown to occur in yeast (Diede and Gottschling, 1999, Cell 99, 723-733).
To better detect the telomere elongation, the single telomere length analysis (STELA) assay was modified (Baird et al., 2004, Hum Mol Genet 13, 1515-1524), to measure telomere length at the in vivo cut chr4. The linker, ‘telorette’, was ligated to the telomere and PCR amplified the telomere using the ‘teltail’ primer and an internal primer in the hygromycin resistance (HYG) sequence on the engineered chromosome (FIG. 1B). To determine the un-extended cut chromosome length in vitro, a different linker was designed, ‘IScerette’, which anneals to the 4-nt 3′ overhang created by the I-Sce1 endonuclease (FIG. 1B). PCR using the forward primers, F1 or F2, and the teltail generated products of predicted size on a Southern blot (data not shown).
To further verify telomere addition had occurred, the PCR products were sequenced with Pacific Biosciences (PacBio®) sequencing. PacBio® produces long sequence reads that allowed us to determine telomere length. While sequencing errors, predominantly point insertions and deletions, occurred as expected, the telomere repeats were easily recognizable. To assure products were full length, the PacBio® reads were filtered to examine only those that had the unique HYG sequence followed by the seed telomere repeat sequence and also had the ‘teltail’ primer sequence (FIG. 6). […] The I-Sce1 site is shown boxed (FIG. 1C). Three regions of variant telomere repeats were noted, evident as darker stripes in the aligned reads, that were present in the original SL13 clone, and served as useful sequence reference points (FIG. 1C). If there were degradation past these variants and then new TTAGGG (SEQ ID NO: 100) repeat synthesis in vivo, these landmarks would be removed.
The sequence length distribution in the ADDIT assay represents telomere elongation, incomplete telomere replication and in vivo end resection (as well as PacBio® sequencing errors).
Cell lines were grown in DMEM (Gibco) supplemented with 1% Penicillin/Streptomycin/Glutamine (PSG) and 10% heat inactivated FBS (Invitrogen). SL13 cells were grown in DMEM (Gibco) supplemented with 1% PSG and 10% Tet system approved FBS (Clontech, #631107). Cells were treated with ATM inhibitor KU55933 (R&D Systems, #3544), ATR inhibitor VE821 (Selleckchem, #S8007) or PARP1 inhibitor Olaparib (Selleckchem, #1060) at indicated concentrations or DMSO as a control. For the ADDIT assay, SL13 cells were treated with final concentration 2 μg/ml of doxycycline for typically 48 hr or as indicated.
The original STELA protocol used for human cells (Baird et al., 2004, Hum Mol Genet 13, 1515-1524) was modified to measure telomere lengths on the cut end of chr4 in SL13 cells. Briefly, genomic DNA was extracted using Puregene Core Kit A™ (Qiagen). 4 μg of genomic DNA was digested with Sph1 (NEB) and later diluted to 10 ng/μl in water. For the in vitro IScerette sample, genomic DNA was digested with SphI and I-SceI (NEB) prior to ligation. The ligation was carried out at 35° C. for at least 12 hr in a volume of 10 μl containing 10 ng of digested genomic DNA, 0.9 μM of telorette linkers or IScerette linker and 0.5 U of T4 DNA ligase (NEB) in 1×T4 ligation buffer. […]

SL13 cells [2] = assay: Telomere Southern blot after lentiviral overexpression of mTR and mTERT; assay type: cell-based, mouse; conditions: SL13 cells transduced with lentivirus expressing mTR and mTERT; day 6

CN1CC[C@H](c2c(O)cc(O)c3c(=O)cc(-c4ccccc4Cl)oc23)[C@H](O)C1 [flavopiridol]
percentage of reads with de novo telomere addition (SL13 cells [1]; 400 nM flavopiridol, 48 hrs, DMSO control 24%): less than 2%
elongation in Southern blot analysis of STELA PCR products (SL13 cells [1]; flavopiridol-treated sample): minimal elongation beyond the chr4 I-Sce1-induced cut base line

CN[C@H]1CCc2cc(OC)c(OC)c(OC)c2-c2ccc(OC)c(=O)cc21 [colcemid]
de novo telomere addition / telomere elongation in ADDIT assay (in words) (SL13 cells [1]; PacBio sequencing of STELA products, compared to controls): No significant difference of de novo elongation

CS(=O)(=O)c1ccc(-c2cnc(N)c(C(=O)Nc3ccccc3)n2)cc1 [VE821]
telomere elongation on overexpression of telomerase (Southern blot) (SL13 cells [2]): subtle but reproducible decreased elongation at day 6
